{
  "source": "patent US9365520B2",
  "about": "“Heterocyclic compound” (Takeda Pharmaceutical Company Limited, priority 2014, dated 2016)",
  "data": [
    {"system": "IL-17A gene expression", "experiment": "Effect on IL-23-induced cytokine expression in mice", "format": "in vivo, Balb/c mice", "details": "Mus musculus, 24 h; 10 mg/kg oral, 30 min before and 8 hr after IL-23; ear tissue; versus the negative control group; read-out: percent inhibition of IL-17A gene expression", "experimental": "Effect on IL-23-Induced Cytokine Expression in Mice\nA mouse IL-23 solution (500 ng/10 μL, prepared by Takeda Pharmaceutical Company Limited) or PBS (10 μL, negative control group) was administered intradermally in the ear of Balb/c mice (Charles River Japan, male, 7 weeks old). Twenty-four hr after administration, the ear was resected under isoflurane anesthesia. The test compound was suspended in 0.5% methylcellulose and administered orally 30 min before and 8 hr after IL-23 administration.\nRNA extraction from the ear tissue and quantitative PCR were performed as follows. Specifically, ear tissue 5 mm in diameter was punched from an area of the resected ear centering on the IL-23 injection site, and the tissue was immersed in RNAlater (QIAGEN) for at least 18 hr. The RNAlater-treated ear tissue was homogenized in 350 μL of RLT buffer (RNeasy mini kit, QIAGEN) and treated (55° C., 10 min) with Proteinase K (QIAGEN). Total RNA was then extracted according to the RNeasy mini kit protocol. The RNA thus obtained was then reverse transcribed into cDNA using the High-Capacity RNA-to-cDNA kit (Applied Biosystems), and the amount of each gene expressions was measured by real-time PCR (Viia7™, Applied Biosystems). The PCR buffer used was TaqMan Fast Advanced Master Mix (Applied Biosystems), and TaqMan Gene Expression Assays (Applied Biosystems) Mm00439618_m1 (IL-17A) and 4352341E (β-actin) were used for each gene detection. The IL-17A gene expression level was normalized to the β-actin gene expression level, and the percent inhibition of IL-17A gene expression with the test compound was then calculated.\nThe results (percent inhibition of IL-17A gene expression with oral administration of the test compound) measured by the above-mentioned method are shown in Table 9.", "units": {"inhibition in vivo at 10 mg/kg": "%"}, "values": [
      {"compound": "COCc1ccc2c(c1)CCN(C(=O)[C@H]1C[C@H](CC(=O)O)C1)[C@H]2C(=O)Nc1cc(F)c2c(c1)CCC2(C)C", "note": "[Example 24, (trans-3-(((1R)-1-((7-fluoro-1,1-dimethyl-2,3-dihydro-1H-inden-5-yl)carbamoyl)-6-(methoxymethyl)-3,4-dihydroisoquinolin-2(1H)-yl)carbonyl)cyclobutyl)acetic acid]", "inhibition in vivo at 10 mg/kg": 74},
      {"compound": "COc1ccc2c(n1)CCN(C(=O)[C@H]1C[C@@H](CC(=O)O)C1)[C@H]2C(=O)Nc1cc(F)c([Si](C)(C)C)c(F)c1", "note": "[Example 23, (cis-3-(((5R)-5-((3,5-difluoro-4-(trimethylsilyl)phenyl)carbamoyl)-2-methoxy-7,8-dihydro-1,6-naphthyridin-6(5H)-yl)carbonyl)cyclobutyl)acetic acid]", "inhibition in vivo at 10 mg/kg": 96},
      {"compound": "COc1ccc2c(c1)CCN(C(=O)[C@H]1C[C@@H](C(=O)O)C1)[C@H]2C(=O)Nc1ccc([Si](C)(C)C)c(F)c1", "note": "[Example 32, cis-3-(((1R)-1-((3-fluoro-4-(trimethylsilyl)phenyl)carbamoyl)-6-methoxy-3,4-dihydroisoquinolin-2(1H)-yl)carbonyl)cyclobutanecarboxylic acid]", "inhibition in vivo at 10 mg/kg": 83},
      {"compound": "CCOCC(C)(C)c1c(F)cc(NC(=O)[C@H]2c3ccc(OCC)cc3CCN2C(=O)[C@H]2C[C@@H](CC(=O)O)C2)cc1F", "note": "[Example 18, (cis-3-(((1R)-6-ethoxy-1-((4-(1-ethoxy-2-methylpropan-2-yl)-3,5-difluorophenyl)carbamoyl)-3,4-dihydroisoquinolin-2(1H)-yl)carbonyl)cyclobutyl)acetic acid]", "inhibition in vivo at 10 mg/kg": 72},
      {"compound": "COc1ccc2c(c1)CCN(C(=O)[C@H]1C[C@@H](CC(=O)O)C1)[C@H]2C(=O)Nc1ccc([Si](C)(C)C)c(F)c1", "note": "[Example 33, (cis-3-(((1R)-1-((3-fluoro-4-(trimethylsilyl)phenyl)carbamoyl)-6-methoxy-3,4-dihydroisoquinolin-2(1H)-yl)carbonyl)cyclobutyl)acetic acid]", "inhibition in vivo at 10 mg/kg": 94},
      {"compound": "COc1ccc2c(n1)CCN(C(=O)[C@H]1C[C@@H]1CC(=O)O)[C@H]2C(=O)Nc1cc(F)c([Si](C)(C)C)c(F)c1", "note": "[Example 13, ((1R,2S)-2-(((5R)-5-((3,5-difluoro-4-(trimethylsilyl)phenyl)carbamoyl)-2-methoxy-7,8-dihydro-1,6-naphthyridin-6(5H)-yl)carbonyl)cyclopropyl)acetic acid]", "inhibition in vivo at 10 mg/kg": 91},
      {"compound": "COc1ccc2c(n1)CCN(C(=O)[C@H]1C[C@@H](C(=O)OCc3ccccc3)C1)[C@H]2C(=O)Nc1cc(F)c2c(c1)CCC2(C)C", "note": "[Example 36, benzyl cis-3-(((5R)-5-((7-fluoro-1,1-dimethyl-2,3-dihydro-1H-inden-5-yl)carbamoyl)-2-methoxy-7,8-dihydro-1,6-naphthyridin-6(5H)-yl)carbonyl)cyclobutanecarboxylate]", "inhibition in vivo at 10 mg/kg": 78},
      {"compound": "COc1ccc2c(n1)CCN(C(=O)[C@H]1C[C@H](CC(=O)O)C1)[C@H]2C(=O)Nc1cc(F)c2c(c1)CCC2(C)C", "note": "[Example 20, (trans-3-(((5R)-5-((7-fluoro-1,1-dimethyl-2,3-dihydro-1H-inden-5-yl)carbamoyl)-2-methoxy-7,8-dihydro-1,6-naphthyridin-6(5H)-yl)carbonyl)cyclobutyl)acetic acid]", "inhibition in vivo at 10 mg/kg": 99},
      {"compound": "COc1ccc2c(n1)CCN(C(=O)[C@H]1C[C@H](CC(=O)O)C1)[C@H]2C(=O)Nc1cc(F)c([Si](C)(C)C)c(F)c1", "note": "[Example 28, (trans-3-(((5R)-5-((3,5-difluoro-4-(trimethylsilyl)phenyl)carbamoyl)-2-methoxy-7,8-dihydro-1,6-naphthyridin-6(5H)-yl)carbonyl)cyclobutyl)acetic acid]", "inhibition in vivo at 10 mg/kg": 91},
      {"compound": "CCOc1ccc2c(c1)CCN(C(=O)[C@H]1C[C@H](C(=O)O)C1)[C@H]2C(=O)Nc1cc(F)c([Si](C)(C)C)c(F)c1", "note": "[Example 9, trans-3-(((1R)-1-((3,5-difluoro-4-(trimethylsilyl)phenyl)carbamoyl)-6-ethoxy-3,4-dihydroisoquinolin-2(1H)-yl)carbonyl)cyclobutanecarboxylic acid]", "inhibition in vivo at 10 mg/kg": 57},
      {"compound": "COc1ccc2c(n1)CCN(C(=O)[C@H]1C[C@@H](C(=O)O)C1)[C@H]2C(=O)Nc1cc(F)c([Si](C)(C)C)c(F)c1", "note": "[Example 31, cis-3-(((5R)-5-((3,5-difluoro-4-(trimethylsilyl)phenyl)carbamoyl)-2-methoxy-7,8-dihydro-1,6-naphthyridin-6(5H)-yl)carbonyl)cyclobutanecarboxylic acid]", "inhibition in vivo at 10 mg/kg": 85},
      {"compound": "COc1ccc2c(c1)CCN(C(=O)C1CC(CC(=O)O)C1)[C@H]2C(=O)Nc1cc(F)c([Si](C)(C)C)c(F)c1", "note": "(stereo partly drawn) [Example 4, (3-(((1R)-1-((3,5-difluoro-4-(trimethylsilyl)phenyl)carbamoyl)-6-methoxy-3,4-dihydroisoquinolin-2(1H)-yl)carbonyl)cyclobutyl)acetic acid]", "inhibition in vivo at 10 mg/kg": 86},
      {"compound": "COc1ccc2c(n1)CCN(C(=O)[C@H]1C[C@@H]1CC(=O)O)[C@H]2C(=O)Nc1cc(F)c2c(c1)CCC2(C)C", "note": "[Example 6, ((1R,2S)-2-(((5R)-5-((7-fluoro-1,1-dimethyl-2,3-dihydro-1H-inden-5-yl)carbamoyl)-2-methoxy-7,8-dihydro-1,6-naphthyridin-6(5H)-yl)carbonyl)cyclopropyl)acetic acid]", "inhibition in vivo at 10 mg/kg": 95},
      {"compound": "COc1ccc2c(c1)CCN(C(=O)[C@H]1C[C@@H](C(=O)O)C1)[C@H]2C(=O)Nc1cc(F)c([Si](C)(C)C)c(F)c1", "note": "[Example 5, cis-3-(((1R)-1-((3,5-difluoro-4-(trimethylsilyl)phenyl)carbamoyl)-6-methoxy-3,4-dihydroisoquinolin-2(1H)-yl)carbonyl)cyclobutanecarboxylic acid]", "inhibition in vivo at 10 mg/kg": 57},
      {"compound": "COc1ccc2c(c1)CCN(C(=O)[C@H]1C[C@@H]1CC(=O)O)[C@H]2C(=O)Nc1cc(F)c([Si](C)(C)C)c(F)c1", "note": "[Example 29, ((1R,2S)-2-(((1R)-1-((3,5-difluoro-4-(trimethylsilyl)phenyl)carbamoyl)-6-methoxy-3,4-dihydroisoquinolin-2(1H)-yl)carbonyl)cyclopropyl)acetic acid]", "inhibition in vivo at 10 mg/kg": 73},
      {"compound": "CCOc1ccc2c(c1)CCN(C(=O)[C@H]1C[C@@H](C(=O)O)C1)[C@H]2C(=O)Nc1cc(F)c([Si](C)(C)C)c(F)c1", "note": "[Example 8, cis-3-(((1R)-1-((3,5-difluoro-4-(trimethylsilyl)phenyl)carbamoyl)-6-ethoxy-3,4-dihydroisoquinolin-2(1H)-yl)carbonyl)cyclobutanecarboxylic acid]", "inhibition in vivo at 10 mg/kg": 72},
      {"compound": "COCc1ccc2c(c1)CCN(C(=O)[C@H]1C[C@@H](CC(=O)O)C1)[C@H]2C(=O)Nc1cc(F)c2c(c1)CCC2(C)C", "note": "[Example 19, (cis-3-(((1R)-1-((7-fluoro-1,1-dimethyl-2,3-dihydro-1H-inden-5-yl)carbamoyl)-6-(methoxymethyl)-3,4-dihydroisoquinolin-2(1H)-yl)carbonyl)cyclobutyl)acetic acid]", "inhibition in vivo at 10 mg/kg": 90},
      {"compound": "COc1ccc2c(c1)CCN(C(=O)[C@H]1C[C@@H](CC(=O)O)C1)[C@H]2C(=O)Nc1cc(F)c([Si](C)(C)C)c(F)c1", "note": "[Example 25, (cis-3-(((1R)-1-((3,5-difluoro-4-(trimethylsilyl)phenyl)carbamoyl)-6-methoxy-3,4-dihydroisoquinolin-2(1H)-yl)carbonyl)cyclobutyl)acetic acid]", "inhibition in vivo at 10 mg/kg": 92}
    ]}
  ]
}
